Experimental data: patent publication US20240122867A1, “CORONAL PROTEIN-COATED NANOPARTICLES AND USES THEREOF” (UNIVERSITY OF CENTRAL FLORIDA RESEARCH FOUNDATION, INC., priority 2021, published 2024)

Test system: MDA-MB-231 cells
Experiment: cells
Format: cell-based, human

Which results are given for `CC(=O)O[C@H]1C(=O)[C@@]2(C)[C@H]([C@H](OC(=O)c3ccccc3)[C@]3(O)C[C@H](OC(=O)[C@H](O)[C@@H](NC(=O)c4ccccc4)c4ccccc4)C(C)=C1C3(C)C)[C@]1(OC(C)=O)CO[C@@H]1C[C@@H]2O` [taxol, paclitaxel]?
IC50 (Homo sapiens, MDA-MB-231, read-out: IC50 dose): ~50 nM; reduction of MDA-MB-231 viability (free taxol, 43 μg dose, 24 h): ~50%
